Tests used:
[1] = cited from earlier work
[2] = Thermal stability of NBPT at high temperature; type: physicochemical; settings: followed by sludge/precipitate formation after weeks of high heat
Protocol: Another problem is that certain nitrification inhibitors and/or urease inhibitors degrade at certain high temperatures. […] Often times temperatures in agricultural fields (e.g., corn fields, wheat fields, etc.) reach in excess of 35° C. and sometimes can reach up to 45° C. or higher. For example, at 45° C. […] Thus, it is also desirable to have solvent systems containing nitrification inhibitors and/or urease inhibitors that are stabilized at high temperatures, such as those utilized in hot climates or weather. This invention addresses the addition of co-solvents and/or stabilizers to prolong the chemical and physical stability of formulated liquid agricultural compositions containing (i) one or more nitrification inhibitors, (ii) one or more urease inhibitors or (iii) a combination of both (i) and (ii). In one embodiment, the at least one urease inhibitor is NBPT. In one embodiment, the at least one nitrification inhibitor a natural nitrification inhibitor. In yet another embodiment, the at least one nitrification inhibitor is neem.

[3] = typically above 45° C.; cited from earlier work

SMILES: N#CNC(=N)N [dicyandiamide, Dicyandiamide]
- solubility in water [1]: about 41 g/l

SMILES: CCCCNP(N)(N)=S [NBPT, N-(n-butyl)-thiophosphoric triamide]
- appearance of NBPT formulated in different solvents at 45° C. [2]: changes color in days from colorless to a darker green/brown
- degradation at higher temperature [3]: degrades rapidly

— patent US20170283340A1, “ALKYL THIOPHOSPHORIC TRIAMIDE AND NEEM OIL SOLVENT SYSTEMS FOR USE IN AGRICULTURAL APPLICATIONS” (RHODIA OPERATIONS, priority 2016, published 2017)
